Results from US20230030847A1, “ANTI-MICROBIAL SULFONAMIDE PHARMACEUTICAL COMPOSITIONS FOR EXTERNAL USE” (priority 2021, published 2023).

Experiments:
[1] = test system: Candida auris; test: impregnated test swatch kill test; assay type: cell-based; conditions: stack of four swatches impregnated with 2.5% BENZ; within 1 hour
[2] = stability study of BENZ solution; assay type: physicochemical
Experimental: A stability study was conducted. A BENZ solution was stored for 14 days at 54° C. At Day 0, the samples contained an average of 20.26% BENZ. At Day 14, the samples contained an average of 19.97% BENZ.

[3] = test system: Rhinovirus 37, 151-1 strain, ATCC VR-1607; test: impregnated filter medium virucidal test (TCID50 in MRC-5 cells); assay type: cell-based; conditions: filter medium impregnated with 2.5% BENZ; contact time 30 minutes, 24.7-24.9° C., 39.9-40.5% relative humidity
Experimental: Next, a filter medium impregnated with 2.5% BENZ was exposed to a 0.200 mL volume of Rhinovirus 37, 151-1 strain, ATCC VR-1607 for a contact time of 30 minutes at 24.7-24.9° C. and 39.9-40.5% relative humidity. After 30 minutes, the filter medium was transferred to a neutralization medium and vortexed for at least 15 seconds. A 0.1 mL aliquot was removed and a series of 10-fold dilutions was performed in 0.9 mL aliquots of test medium. Each dilution was inoculated into MRC-5 cells. Viral titer was then calculated.

[4] = test system: skin of guinea pigs; conditions: guinea pig, in vivo
Experimental: Next, 10 guinea pigs were used to test for delayed dermal contact sensitization according to ISO 10993-10, Part 10. A wet gauze patch (25 mm×25 mm) treated with 20% BENZ was applied to the intact skin of each guinea pick for six hours (±30 minutes), three times a week, over a three-week period for a total of nine applications. After a two-week recovery period, the gauze patch was applied again. The skin was then observed for evidence of dermal reaction at 24 and 48 hours after patch removal. […] This test was performed a total of three times with different guinea pigs, and the same results were obtained each time.

[5] = test system: skin of rabbits; test: primary skin irritation according to ISO 10993-10, Part 10; assay type: in vivo, rabbit; conditions: abraded skin, gauze patches treated with 20% BENZ for 24 hours, observed 1, 24, 48 and 72 hours after patch removal
Experimental: Next, three rabbits were used for evaluation of primary skin irritation according to ISO 10993-10, Part 10. Two wet gauze patches (25 mm×25 mm) treated with 20% BENZ were applied to the skin of each rabbit in different locations. Each application site was abraded with four parallel epidermal abrasions prior to application of the treated gauze patch. The treated gauze was secured in place for 24 hours, then removed. The skin was then observed for erythema and edema at 1, 24, 48, and 72 hours after patch removal.

[6] = test system: Influenza A virus, A/PR/8/34 strain, ATCC VR-1469; assay type: cell-based; conditions: filter medium impregnated with 2.5% BENZ; similar experiment (contact time 30 minutes)
[7] = test system: Staphylococcus aureus; test: impregnated test swatch kill test; assay type: cell-based; conditions: swatches impregnated with 2.5% BENZ; within 30 minutes
Experimental: (§1) Test swatches which had been impregnated with 2.5% BENZ were exposed to Staphylococcus aureus, Pseudomonas aeruginosa, and Aspergillus brasiliensis. A stack of two swatches was placed in a petri dish and then inoculated with 1.000 mL of an inoculum for one of the microorganisms. Following inoculation, the petri dishes were sealed and placed in a plastic bag/container, then incubated at optimal conditions for the given microorganism. Swatches were harvested at 0, 10 minutes, 30 minutes, 1 hour, and 6 hours after inoculation. At harvesting, the swatch was transferred to a neutralization media, then vortex mixed for 1-2 minutes. The neutralization suspension was […] and plated for 18-24 hours for bacteria and 24-72 hours for fungi at optimal incubation conditions.

[8] = test system: Pseudomonas aeruginosa; test: impregnated test swatch kill test; assay type: cell-based; conditions: swatches impregnated with 2.5% BENZ; within 10 minutes
Experimental: as §1

[9] = test system: Aspergillus brasiliensis; test: impregnated test swatch kill test; assay type: cell-based; conditions: swatches impregnated with 2.5% BENZ; within 1 hour
Experimental: as §1

[10] = test system: bovine corneas; test: bovine corneal opacity and permeability (BCOP) test for ocular irritation; conditions: 0.75 mL of 20% BENZ solution, 10 minutes exposure, three bovine corneas
Experimental: A bovine corneal opacity and permeability (BCOP) test was performed to determine the potential for ocular irritation.
Each dissected cornea was mounted in a holder that separated into anterior and posterior chambers. The two chambers were filled with a MEM solution, and an opacitometer was used to measure the opacity of the cornea. Next, the MEM solution was removed from the anterior chamber, and the epithelium of three bovine corneas were exposed to 0.75 mL of a 20% BENZ solution for 10 minutes in a manner that covered the entire cornea. The two chambers were then rinsed and refilled with fresh MEM solution. The corneas were then incubated at 32° C. for two hours, and the two chambers were again rinsed and refilled with fresh MEM solution. The opacity was measured again. The MEM solution was then removed from the anterior chamber and the anterior chamber was filled with 1.0 mL of 0.4% sodium fluorescein in Dulbecco's phosphate-buffered saline. After 90 minutes, the fluid in the posterior chamber was removed and the amount of dye that passed through the cornea was measured as the optical density at 490 nm by spectrophotometer. The In Vitro Irritancy Score (IVIS) was calculated to be −0.67, which is a perfect score.

[11] = test system: rats; test: single-dose oral gavage toxicity in rats; assay type: in vivo; conditions: single gavage dose of liquid containing 20% BENZ, 5 g/kg body weight
Text: Five rats (Rattus norvegicus) weighing 244 to 272 grams were gavaged with a single dose of liquid containing 20% N-chloro-4-carboxybenzenesulfonamide (BENZ) at a dosage of 5 g/kg body weight.

## O=C(O)c1ccc(S(=O)(=O)NCl)cc1 [BENZ, N-chloro-4-carboxybenzenesulfonamide]
[1]
  kill: 99.998%
[2]; Day 0, BENZ solution
  average BENZ content of samples: 20.26%
[2]; Day 14, stored at 54° C.
  average BENZ content of samples: 19.97%
[3]
  reduction in viral titer: > 99.997%
[4]
  delayed dermal contact sensitization: No evidence was found of delayed dermal contact sensitization
[5]
  erythema and edema: no erythema or edema observed
[6]
  reduction in viral titer: > 100%
[7]
  kill: 99.999%
[8]
  kill: 99.999%
[9]
  kill: 99.9%
[10]
  In Vitro Irritancy Score (IVIS): −0.67
[11]
  survival after seven days: all five rats were still alive
